The results in this text go back to patent publication US20030139431A1 (priority 2001, published 2003).

Data set [1] has as its target T1, rNPFF1 (Rattus norvegicus, UniProt Q9EP86).
T1 construct: expressed in transfected cells
Briefly: Binding affinity at cloned recombinant rat NPFF1 receptor.

In data set [2] the target is T2, rNPFF2 (Rattus norvegicus, UniProt Q9EQD2).
T2 construct: expressed in transfected cells
Put plainly: Binding affinity at cloned recombinant rat NPFF2 receptor.

Data set [3] concerns the target T1, rNPFF1. Briefly: Functional assay (agonist potency, intrinsic activity) at cloned rat NPFF1 receptor. The data set is classed as cell-based. The following applies: for rNPFF1 IA (intrinsic activity): percent of maximum response elicited by neuropeptide FF, rat NPFF1; for pEC50: recombinant rat NPFF1. As for the experimental part:
(§1) Intrinsic activity of a compound is measured as the percent of maximum response.

In data set [4] the target is T2, rNPFF2. Put plainly: Functional assay (agonist potency, intrinsic activity) at cloned rat NPFF2 receptor. It counts as cell-based. The following applies: for rNPFF2 IA (intrinsic activity): percent of maximum response elicited by neuropeptide FF, rat NPFF2; for pEC50: recombinant rat NPFF2. The procedure: as §1
For data set [5], the target named is T3, hNPFF1 (Homo sapiens, UniProt Q9GZQ6).
T3 construct: expressed in transfected cells
Put plainly: Binding affinity at cloned recombinant human NPFF1 receptor.

The target of data set [6] is T4, hNPFF2 (Homo sapiens, UniProt Q9Y5X5).
T4 construct: expressed in transfected cells
Briefly: Binding affinity at cloned recombinant human NPFF2 receptor.

For data set [7], the system named is distention induced contractions of the rat bladder. Put plainly: Distension-induced rhythmic contraction (DIRC) model, micturition reflex in anesthetized rats. The data set is classed as in vivo. The conditions noted are these: i.v.; for duration of inhibition of bladder activity (figure legend): dose not printed in legend. The procedure:
The effects of compounds on the micturition reflex were assessed in the “distension-induced rhythmic contraction” (DIRC) model (also called “volume-induced rhythmic contraction” model) in rats, as described in previous publications (36, 38, 40). This model is widely considered to be predictive for the actions of drugs to treat human urge incontinence (also referred to as detrusor instability or unstable bladder). Examples of drugs that are active in this model which also are used therapeutically in humans include oxybutynin and baclofen (40); imipramine and nortriptyline (37); and nifedipine and terodiline (38).
Female Sprague Dawley rats weighing approximately 300 g were anesthetized with subcutaneous urethane (1.2 g/kg) The trachea was cannulated with PE240 tubing to provide a clear airway throughout the experiment. A midline abdominal incision was made and the left and right ureters were isolated. The ureters were ligated distally (to prevent escape of fluids from the bladder) and cannulated proximally with PE10 tubing. The incision was closed using 4-0 silk sutures, leaving the PE10 lines routed to the exterior for the elimination of urine. The bladder was canulated via the transurethral route using PE50 tubing inserted 2.5 cm beyond the urethral opening. This cannula was secured to the tail using tape and connected to a pressure transducer. To prevent leakage from the bladder, the cannula was tied tightly to the exterior urethral opening using 4-0 silk.
To initiate the micturition reflex, the bladder was first emptied by applying pressure to the lower abdomen, and then filled with normal saline in 100 μL increments (maximum=2 ml) until spontaneous bladder contractions occurred (typically 20-40 mmHg) at a rate of one contraction every 2 to 3 minutes. Once a regular rhythm was established, vehicle (saline) or test compounds were administered i.v. to examine their effects on bladder activity. The effect of a compound which inhibited the micturition reflex was expressed as its “disappearance time”, defined as the time between successive bladder contractions in the presence of the test compound minus the time between contractions before compound administration.

Data set [8] has as its target T3, hNPFF1. Put plainly: Functional assay (agonist potency, intrinsic activity) at cloned human NPFF1 receptor. It counts as cell-based. The conditions noted are these: for hNPFF1 IA (intrinsic activity): percent of maximum response elicited by neuropeptide FF, human NPFF1; for pEC50: recombinant human NPFF1. As for the experimental part: as §1
Data set [9] deals with T4, hNPFF2. Briefly: Functional assay (agonist potency, intrinsic activity) at cloned human NPFF2 receptor. The conditions noted are these: for hNPFF2 IA (intrinsic activity): percent of maximum response elicited by neuropeptide FF, human NPFF2; for pEC50: recombinant human NPFF2. The data set is classed as cell-based. As for the experimental part: as §1

pEC50, pKi: −log10 of the molar value. Counter-ions that a name gives are not always drawn. Where only a bound is given, the exact number is not on record here.

T4 sequence (Q9Y5X5 103-522): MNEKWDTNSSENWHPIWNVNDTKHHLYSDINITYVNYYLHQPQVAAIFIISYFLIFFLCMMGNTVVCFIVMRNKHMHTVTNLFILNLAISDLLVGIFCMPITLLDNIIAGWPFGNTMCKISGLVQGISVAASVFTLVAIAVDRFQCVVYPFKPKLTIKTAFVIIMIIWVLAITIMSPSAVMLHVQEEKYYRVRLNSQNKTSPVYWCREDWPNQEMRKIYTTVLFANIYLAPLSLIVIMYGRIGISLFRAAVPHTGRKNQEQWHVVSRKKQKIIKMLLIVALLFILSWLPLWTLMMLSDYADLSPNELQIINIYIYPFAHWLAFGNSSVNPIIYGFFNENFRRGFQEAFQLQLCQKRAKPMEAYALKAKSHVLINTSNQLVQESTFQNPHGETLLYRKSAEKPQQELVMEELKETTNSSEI
T1 sequence (Q9EP86 whole entry): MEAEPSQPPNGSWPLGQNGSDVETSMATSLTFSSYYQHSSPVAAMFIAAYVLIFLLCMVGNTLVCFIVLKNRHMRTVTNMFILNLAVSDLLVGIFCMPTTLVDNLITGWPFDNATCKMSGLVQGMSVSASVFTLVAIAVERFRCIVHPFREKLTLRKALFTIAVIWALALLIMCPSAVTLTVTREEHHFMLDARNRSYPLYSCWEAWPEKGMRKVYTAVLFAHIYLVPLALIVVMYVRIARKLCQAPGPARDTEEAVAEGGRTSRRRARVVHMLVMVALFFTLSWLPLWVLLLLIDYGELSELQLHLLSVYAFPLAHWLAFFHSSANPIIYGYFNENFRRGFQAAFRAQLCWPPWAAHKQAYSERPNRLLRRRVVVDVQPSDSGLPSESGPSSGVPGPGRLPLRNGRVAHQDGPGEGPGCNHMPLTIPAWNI
T2 sequence (Q9EQD2 whole entry): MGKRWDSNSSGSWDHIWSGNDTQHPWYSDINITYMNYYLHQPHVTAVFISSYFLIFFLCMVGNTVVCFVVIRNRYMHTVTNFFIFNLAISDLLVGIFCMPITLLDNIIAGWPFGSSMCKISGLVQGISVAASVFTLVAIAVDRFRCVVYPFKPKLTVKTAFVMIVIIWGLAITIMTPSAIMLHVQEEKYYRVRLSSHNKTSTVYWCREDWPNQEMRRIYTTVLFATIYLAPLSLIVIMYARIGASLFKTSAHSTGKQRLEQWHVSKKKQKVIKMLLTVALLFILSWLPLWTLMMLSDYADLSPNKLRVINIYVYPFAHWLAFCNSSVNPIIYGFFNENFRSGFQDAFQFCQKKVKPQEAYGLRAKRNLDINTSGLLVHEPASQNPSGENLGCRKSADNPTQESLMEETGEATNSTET
T3 sequence (Q9GZQ6 whole entry): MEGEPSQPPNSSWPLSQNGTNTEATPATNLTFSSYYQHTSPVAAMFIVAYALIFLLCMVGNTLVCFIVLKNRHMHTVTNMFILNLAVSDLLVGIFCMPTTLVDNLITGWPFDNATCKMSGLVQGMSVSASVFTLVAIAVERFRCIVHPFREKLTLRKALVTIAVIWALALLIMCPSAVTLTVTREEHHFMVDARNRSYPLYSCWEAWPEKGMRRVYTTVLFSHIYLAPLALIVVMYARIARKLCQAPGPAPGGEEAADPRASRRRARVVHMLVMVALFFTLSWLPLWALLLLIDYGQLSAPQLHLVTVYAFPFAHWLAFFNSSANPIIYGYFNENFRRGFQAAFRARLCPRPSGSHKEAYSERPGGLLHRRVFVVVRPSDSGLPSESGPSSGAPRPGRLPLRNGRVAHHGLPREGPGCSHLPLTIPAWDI

For the compound `Cc1nc(NC(=N)N)nc2cc(OCc3ccccc3)ccc12` (as salt: salt) [Compound 1006, N-[7-(benzyloxy)-4-methyl-2-quinazolinyl]guanidine], the melting point is 215 to 217 °C (dec.).
Same read-out and setting: the figure for `Cc1cc2nc(NC(=N)N)nc(C)c2cc1O` (as salt: salt) [Compound 1017, N-(6-hydroxy-4,7-dimethyl-2-quinazolinyl)guanidine] is 246 to 248 °C (dec.).
Take `Cc1nc(NC(=N)N)nc2cc(C(C)(C)C)ccc12` [Compound 1022, N-[7-(tert-butyl)-4-methyl-2-quinazolinyl]guanidine]: the melting point is 195 to 198 °C (dec.). In addition, the pKi in data set [1] is 6.90. Further, the pKi in data set [2] was 6.22. In [3], the “rNPFF1 IA (intrinsic activity)” value is recorded as 19% NPFF and the pEC50 is 5.50. Further, in data set [4], the “rNPFF2 IA (intrinsic activity)” value came out at 81% NPFF and the pEC50 was 6.72.
On to `Cc1nc(NC(=N)N)nc2cc3c(cc12)CCC3` [Compound 1038, N-(4-methyl-7,8-dihydro-6H-cyclopenta[g]quinazolin-2-yl)guanidine], for which the melting point is 295 to 298 °C (dec.). The pKi in data set [1] was 7.02. Further, the pKi in [2] is 6.22. In [3], the “rNPFF1 IA (intrinsic activity)” value is “Inactive” and the pEC50 is below 5.00. Besides, in data set [4], the “rNPFF2 IA (intrinsic activity)” value is on record as 74% NPFF and the pEC50 is 7.32.
Consider `Cc1cc(NC(=N)N)nc2ccc(Cl)cc12` [Compound 4005, N-(6-chloro-4-methyl-2-quinolinyl)guanidine], for which the pKi in data set [5] was 7.62; in data set [6] it was 6.91; in [1], 7.60; in data set [2] it was 6.55. Further, the “rNPFF1 IA (intrinsic activity)” value in data set [3] is given as “Inactive”. In addition, the values for the pEC50 in [3] and in data set [4] were below 5.00 and 6.41, respectively. Also, in [4], the “rNPFF2 IA (intrinsic activity)” value amounted to 61% NPFF. Besides, the disappearance time in data set [7] (1 mg/kg) came out at 35 min. Besides, the “inhibition of distention induced contractions of the rat bladder” value in [7] (1 mg/kg) is “complete inhibition”. Also, the “duration of inhibition of bladder activity (figure legend)” value in data set [7] is reported as 35 min.
On to `Cc1ccc2c(C)cc(NC(=N)N)nc2c1` [Compound 4006, N-(4,7-dimethyl-2-quinolinyl)guanidine], for which the pKi in [5] is 7.89; in [6] it was 7.04; in [1] it was 8.15; in data set [2], 6.73. In data set [8], the “hNPFF1 IA (intrinsic activity)” value is recorded as “Inactive”. In addition, the pEC50 was below 5.00 in [8], below 5.00 in data set [9], below 5.00 in [3] and 6.57 in data set [4]. Besides, the “hNPFF2 IA (intrinsic activity)” value in data set [9] is “Inactive”. For the same compound, the “rNPFF1 IA (intrinsic activity)” value in data set [3] was “Inactive”. Besides, in data set [4], the “rNPFF2 IA (intrinsic activity)” value worked out at 32% NPFF. This compound showed a disappearance time in [7] (3 mg/kg) of 12 min. Also, the “inhibition of distention induced contractions of the rat bladder” value in data set [7] (3 mg/kg) is “complete inhibition”. Besides, the “duration of inhibition of bladder activity (figure legend)” value in data set [7] is recorded as 12 min.
With `CCCCCc1ccc2nc(NC(=N)N)cc(C)c2c1` [Compound 5002, N-(4-methyl-6-pentyl-2-quinolinyl)guanidine], the pKi in data set [5] is 7.40; in data set [6], 6.34; in data set [1] it was 7.52; in [2], 6.24. For the same compound, in data set [8], the “hNPFF1 IA (intrinsic activity)” value is given as “Inactive”. Also, the pEC50 in [8] was below 5.00; in [9] it was 5.77; in [3] it was 6.80; in data set [4], 6.59. Also, the “hNPFF2 IA (intrinsic activity)” value in data set [9] is 75% NPFF. Further, in data set [3], the “rNPFF1 IA (intrinsic activity)” value was found to be 41% NPFF. The “rNPFF2 IA (intrinsic activity)” value in [4] is listed as 90% NPFF.
`CCCCCCc1ccc2nc(NC(=N)N)cc(C)c2c1` [Compound 5003, N-(6-hexyl-4-methyl-2-quinolinyl)guanidine]: the pKi in data set [5] was 6.82; in [6], 5.93; in data set [1] it was 6.27; in [2], 5.35. Moreover, in [8], the “hNPFF1 IA (intrinsic activity)” value is “Inactive”. The pEC50 was below 5.00 in data set [8], 5.50 in data set [9], 6.36 in [3] and 5.00 in [4]. For the same compound, the “hNPFF2 IA (intrinsic activity)” value in [9] turned out to be 45% NPFF. Further, the “rNPFF1 IA (intrinsic activity)” value in data set [3] was determined as 27% NPFF. For the same compound, in [4], the “rNPFF2 IA (intrinsic activity)” value is 57% NPFF.
Consider `Cc1cc(NC(=N)N)nc2ccccc12` [Compound 6001, N-(4-methyl-2-quinolinyl)guanidine], for which the pKi in [5] was 7.64; in data set [6], 6.43; in [1] it was 7.96; in [2] it was 6.36. The “hNPFF1 IA (intrinsic activity)” value in [8] is “Inactive”. The pEC50 in data set [8], in data set [9], in data set [3] and in [4] was below 5.00 throughout. Also, the “hNPFF2 IA (intrinsic activity)” value in data set [9] is on record as “Inactive”. Moreover, the “rNPFF1 IA (intrinsic activity)” value in data set [3] is on record as “Inactive”. Besides, the “rNPFF2 IA (intrinsic activity)” value in data set [4] is on record as “Inactive”.

For orientation: melting point means the temperature, or range, at which the solid turns liquid. The term pKi denotes the Ki on a negative log10 scale, so that one unit is a factor of ten. One may read the pEC50 as the negative decadic logarithm of the EC50, by convention in mol/L.
